From ChEMBL document CHEMBL5053526, “Synthesis and biological evaluation of cajanonic acid A derivatives as potential PPARγ antagonists” (2021) come the findings set out here.

Experiment [1] relates to HepG2. Briefly: Insulin-sensitizing activity in human HepG2 cells assessed as increase in glucose consumption at 10 uM relative to control. The experiment is classed as functional.
For experiment [2], the system named is HepG2. Briefly: Insulin-sensitizing activity in human HepG2 cells assessed as glucose consumption at 10 uM (Rvb= 2.04 +/- 0.12 mM). It is filed as functional.
Experiment [3] addresses T1, Peroxisome proliferator-activated receptor gamma (Homo sapiens) (UniProt P37231).
T1 sequence (whole entry): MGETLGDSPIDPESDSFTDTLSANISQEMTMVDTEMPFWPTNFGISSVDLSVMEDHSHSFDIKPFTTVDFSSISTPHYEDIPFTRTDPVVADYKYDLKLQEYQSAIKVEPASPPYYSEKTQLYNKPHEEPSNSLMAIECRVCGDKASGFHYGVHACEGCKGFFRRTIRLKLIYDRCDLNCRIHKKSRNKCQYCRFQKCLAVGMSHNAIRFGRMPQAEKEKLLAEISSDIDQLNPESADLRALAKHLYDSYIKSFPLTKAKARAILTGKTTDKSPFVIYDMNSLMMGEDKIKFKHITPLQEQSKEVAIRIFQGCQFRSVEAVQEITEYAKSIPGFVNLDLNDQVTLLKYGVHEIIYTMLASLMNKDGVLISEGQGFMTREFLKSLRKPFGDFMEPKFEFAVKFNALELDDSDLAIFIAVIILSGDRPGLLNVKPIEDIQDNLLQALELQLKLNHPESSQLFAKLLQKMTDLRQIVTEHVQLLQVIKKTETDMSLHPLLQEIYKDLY
As to the kind of experiment: Antagonist activity at PPARgamma in HEK293 cells assessed as suppression of rosiglitazone induced PPARgamma transactivation at 30 uM by dual-luciferase reporter gene assay relative to control. The experiment is classed as cell-based. On the set-up: scale not given: the % may be the effect or the level left. On the technique in general: In a reporter assay the amount or activity of a reporter protein is the signal.

Experiment [4] has as its system HepG2. As to the kind of experiment: Insulin-sensitizing activity in human HepG2 cells assessed as fold change in glucose consumption at 10 uM relative to pioglitazone. It is filed as functional.
For experiment [5], the system named is HepG2. As to the kind of experiment: Insulin-sensitizing activity in human HepG2 cells assessed as fold change in glucose consumption at 10 uM relative to CAA. It is filed as functional.
Experiment [6] is filed under the species Mus musculus. Briefly: Hypoglycemic activity in db/db mouse assessed as improvement in oral glucose tolerance measured up to 120 mins by OGTT. It is filed as functional, organism-based.
Experiment [7] addresses T1, Peroxisome proliferator-activated receptor gamma (Homo sapiens). Briefly: Antagonist activity at PPARgamma in HEK293 cells assessed as fold increase in suppression of rosiglitazone induced PPARgamma transactivation at 30 uM by dual-luciferase reporter gene assay relative to CAA. It is filed as cell-based.

Active and inactive are the calls of the source. The rule behind the calls is not given here.

`COc1cc(CC(=O)c2ccc(Cl)cc2)c(C(=O)O)c(O)c1CC=C(C)C`: the Activity in experiment [1] amounted to 26.2%; in experiment [2] it was 2.59 mM; in experiment [3], 28.1%.

In the case of `COc1cc(CC(=O)c2ccc(Cl)cc2Cl)c(C(=O)O)c(O)c1CC=C(C)C`, the Activity stood at 31.9% in experiment [1], 2.69 mM in experiment [2] and 83.2% in experiment [3] (filed as antagonist).

On to `COc1cc(O)c(C(=O)O)c(CC(=O)c2ccc(Cl)cc2)c1`, for which the Activity is 16.3% in experiment [1], 2.37 mM in experiment [2] and 12% in experiment [3].

As to `CCc1ccc(CCOc2ccc(CC3SC(=O)NC3=O)cc2)nc1` (centres undefined) [PIOGLITAZONE], the Activity amounted to 43.3% in experiment [1] and 2.92 mM in experiment [2].

Regarding `COc1cc2c(c(OCC=C(C)C)c1)C(=O)N(C(C)c1cccc(C(F)(F)F)c1)CC2` (centres undefined), the Activity was found to be 30.6% in experiment [1], 2.66 mM in experiment [2] and 79.4% in experiment [3] (filed as antagonist).

In the case of `COc1cc2c(c(OCC=C(C)C)c1)C(=O)N(Cc1cccc(C(F)(F)F)c1)CC2`, the “fold change (FC)” value is 1.2 in experiment [4], 1.5 in experiment [5] and 1.3 in experiment [7]. Besides, the values for the Activity in experiment [1], in experiment [2] and in experiment [3] (filed as antagonist) were 50.6%, 3.07 mM and 98.2%, respectively. In addition, the result in experiment [6] was Active.

On to `COc1cc(O)c(C(=O)O)c(CC(=O)c2ccc(Cl)cc2Cl)c1`, for which the results for the Activity in experiment [1], in experiment [2] and in experiment [3] were 10.2%, 2.25 mM and 15.9%, respectively.

As for `COc1cc2c(c(OCC=C(C)C)c1)C(=O)N(C(C)c1ccccc1)CC2` (centres undefined), the values for the Activity in experiment [1], in experiment [2] and in experiment [3] (filed as antagonist) were 28.5%, 2.62 mM and 81.7%, respectively.

Consider `COc1cc(O)c(C(=O)O)c(CC(=O)c2ccc(Cl)cc2)c1CC=C(C)C`, for which the Activity in experiment [1] was determined as 27.5%; in experiment [2], 2.6 mM; in experiment [3], 11.3%.

As to `COc1cc(CC(=O)c2cccs2)c(C(=O)O)c(O)c1CC=C(C)C`, the results for the Activity in experiment [1], in experiment [2] and in experiment [3] (filed as antagonist) were 19.1%, 2.43 mM and 90.2%, respectively.

For `COc1cc2c(c(OCC=C(C)C)c1)C(=O)N(Cc1ccc(F)c(Cl)c1)CC2`, the results for the Activity in experiment [1], in experiment [2] and in experiment [3] (filed as antagonist) were 36.9%, 2.79 mM and 61.1%, respectively.

With `COc1cc(O)c(C(=O)O)c(CS(=O)(=O)c2ccccc2)c1`, the figures for the Activity in experiment [1], in experiment [2] and in experiment [3] were -9.4%, 1.85 mM and -14%, respectively.

As for `COc1cc(O)c(C(=O)O)c(CC(=O)c2cccs2)c1`, the figures for the Activity in experiment [1], in experiment [2] and in experiment [3] were 9.1%, 2.24 mM and 8.7%, respectively.

As for `COc1cc2c(c(OCC=C(C)C)c1)C(=O)N(Cc1cccc(F)c1)CC2`, the values for the Activity in experiment [1], in experiment [2] and in experiment [3] (filed as antagonist) were 37.4%, 2.8 mM and 75.1%, respectively.

Take `COc1cc(O)c(C(=O)O)c(CC(=O)c2cccs2)c1CC=C(C)C`: the Activity in experiment [1] was found to be 18%; in experiment [2] it was 2.41 mM; in experiment [3] (filed as antagonist) it was 84.6%.

As for `COc1cc(O)c(C(=O)O)c(CS(=O)(=O)c2ccccc2)c1CC=C(C)C`, the Activity in experiment [1] is 4.9%; in experiment [2] it was 2.14 mM; in experiment [3], -1%.

For the molecule `COc1cc(O)c(C(=O)O)c(CC(=O)c2ccccc2)c1CC=C(C)C`, the figures for the Activity in experiment [1], in experiment [2] and in experiment [3] (filed as antagonist) were 34%, 2.73 mM and 73.7%, respectively.

Consider `COc1cc(O)c(C(=O)O)c(CC(=O)c2ccc(Cl)cc2Cl)c1CC=C(C)C`, for which the Activity came out at 23.1% in experiment [1], 2.52 mM in experiment [2] and 54.3% in experiment [3] (filed as antagonist).

`COc1cc(CC(=O)c2ccc(F)cc2)c(C(=O)O)c(O)c1CC=C(C)C`: the results for the Activity in experiment [1], in experiment [2] and in experiment [3] (filed as antagonist) were 45.6%, 2.97 mM and 93.4%, respectively.

For `COc1cc(O)c(C(=O)O)c(CC(=O)c2ccc(F)cc2)c1`, the figures for the Activity in experiment [1], in experiment [2] and in experiment [3] were -1%, 2.02 mM and 6.3%, respectively.

For `COc1cc(CS(=O)(=O)c2ccccc2)c(C(=O)O)c(O)c1CC=C(C)C`, the values for the Activity in experiment [1], in experiment [2] and in experiment [3] were -3.4%, 1.97 mM and 1.9%, respectively.

As to `COc1cc(O)c(C(=O)O)c(CC(=O)c2ccc(F)cc2)c1CC=C(C)C`, the figures for the Activity in experiment [1], in experiment [2] and in experiment [3] (filed as antagonist) were 39.7%, 2.85 mM and 72.8%, respectively.
